From paper PMC6789782, “Safety Pharmacological Evaluation of the Coffee Component, Caffeoylquinic Acid, and Its Metabolites, Using Ex Vivo and In Vitro Profiling Assays” (Pharmaceuticals, 2019)
Values joined by “and” are separate entries in the source; they are usually repeats but may differ in a detail not shown here. Equal entries are not always repeated. Where two headings read alike, the source gives them in different places.

Legend:
Histamine H1 = Histamine H1 (Homo sapiens, UniProt P35367); test: In vitro profiling, binding assay
Sequence of Histamine H1 (P35367 whole entry): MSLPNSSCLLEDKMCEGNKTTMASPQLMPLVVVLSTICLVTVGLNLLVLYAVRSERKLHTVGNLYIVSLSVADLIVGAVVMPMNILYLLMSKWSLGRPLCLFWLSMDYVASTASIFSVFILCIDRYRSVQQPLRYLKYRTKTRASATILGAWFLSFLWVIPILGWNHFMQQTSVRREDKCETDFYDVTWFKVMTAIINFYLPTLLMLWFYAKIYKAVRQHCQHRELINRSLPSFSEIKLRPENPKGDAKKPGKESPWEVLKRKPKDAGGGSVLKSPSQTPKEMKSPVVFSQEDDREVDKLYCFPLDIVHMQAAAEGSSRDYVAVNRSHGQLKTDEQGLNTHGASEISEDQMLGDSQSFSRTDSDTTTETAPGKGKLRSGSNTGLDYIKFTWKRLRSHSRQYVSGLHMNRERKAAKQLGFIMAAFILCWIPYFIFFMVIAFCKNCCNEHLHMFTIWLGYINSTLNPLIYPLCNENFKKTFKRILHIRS
Procedure: (§1) Binding and functional assays of CGAs with the proteins known to be pharmacological targets related to the CVS, CNS, and GI functions were conducted. […] In the binding assay, we measured the radiation activity of the solution containing filtered proteins that bound to the tested compound or high-affinity ligand, while in the functional assays, we measured the reaction product. The ability of the test compound to interact with the tested targets was measured as the inhibition of ligand binding to the target or reaction product production (% inhibition).

[1] = target: Transporter, Dopamine (DAT) (Homo sapiens, UniProt Q01959); test: In vitro profiling, binding assay
Sequence of Transporter, Dopamine (DAT) (Q01959 whole entry): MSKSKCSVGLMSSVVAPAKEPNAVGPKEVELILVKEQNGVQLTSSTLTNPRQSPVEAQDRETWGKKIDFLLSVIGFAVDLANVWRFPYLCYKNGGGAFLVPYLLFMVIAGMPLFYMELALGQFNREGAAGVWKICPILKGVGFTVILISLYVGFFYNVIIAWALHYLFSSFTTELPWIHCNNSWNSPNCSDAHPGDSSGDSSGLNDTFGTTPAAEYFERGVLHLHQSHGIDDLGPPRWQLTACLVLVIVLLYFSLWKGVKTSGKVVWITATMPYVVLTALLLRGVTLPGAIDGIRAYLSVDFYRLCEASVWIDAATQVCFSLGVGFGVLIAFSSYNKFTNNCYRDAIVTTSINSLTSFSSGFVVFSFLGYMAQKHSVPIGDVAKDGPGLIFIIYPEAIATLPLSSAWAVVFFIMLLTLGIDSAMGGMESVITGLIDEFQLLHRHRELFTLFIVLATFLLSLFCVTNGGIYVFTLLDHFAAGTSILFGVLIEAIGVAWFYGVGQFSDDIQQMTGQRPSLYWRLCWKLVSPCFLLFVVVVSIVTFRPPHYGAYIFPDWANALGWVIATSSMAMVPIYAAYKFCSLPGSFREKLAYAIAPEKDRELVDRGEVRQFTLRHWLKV
Procedure: as §1

[2] = target: T1, Cholecystokinin CCK1 (CCKA) (Homo sapiens, UniProt P32238); test: In vitro profiling, binding assay
T1 sequence (P32238 1-428): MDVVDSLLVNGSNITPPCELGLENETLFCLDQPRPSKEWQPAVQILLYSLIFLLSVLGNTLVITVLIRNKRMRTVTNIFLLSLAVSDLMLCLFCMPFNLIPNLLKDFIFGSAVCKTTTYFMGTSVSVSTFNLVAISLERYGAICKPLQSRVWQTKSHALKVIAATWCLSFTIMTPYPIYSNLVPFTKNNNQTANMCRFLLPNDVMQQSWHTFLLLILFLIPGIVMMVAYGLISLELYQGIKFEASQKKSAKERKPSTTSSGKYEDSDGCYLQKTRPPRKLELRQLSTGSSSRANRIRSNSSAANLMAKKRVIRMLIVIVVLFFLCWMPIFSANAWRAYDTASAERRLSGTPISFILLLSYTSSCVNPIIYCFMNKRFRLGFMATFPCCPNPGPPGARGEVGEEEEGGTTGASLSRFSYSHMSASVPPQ
Procedure: as §1

Adrenergic β1 = Adrenergic β1 (Homo sapiens, UniProt P08588); test: In vitro profiling, binding assay
Sequence of Adrenergic β1 (P08588 whole entry): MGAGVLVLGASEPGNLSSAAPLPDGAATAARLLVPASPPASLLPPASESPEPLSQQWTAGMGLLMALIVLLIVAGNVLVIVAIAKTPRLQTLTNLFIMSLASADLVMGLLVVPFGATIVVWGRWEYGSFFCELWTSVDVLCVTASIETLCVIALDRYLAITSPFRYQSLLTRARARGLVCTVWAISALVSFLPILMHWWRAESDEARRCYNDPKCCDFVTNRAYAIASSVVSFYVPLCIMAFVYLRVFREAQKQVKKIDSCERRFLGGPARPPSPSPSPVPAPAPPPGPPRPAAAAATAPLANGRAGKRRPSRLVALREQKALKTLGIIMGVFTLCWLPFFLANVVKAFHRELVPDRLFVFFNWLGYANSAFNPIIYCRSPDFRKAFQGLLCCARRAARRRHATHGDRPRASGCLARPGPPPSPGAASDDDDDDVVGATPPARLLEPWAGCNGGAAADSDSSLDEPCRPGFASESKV
Procedure: as §1

Dopamine D1 = Dopamine D1 (Homo sapiens, UniProt P21728); test: In vitro profiling, binding assay
Sequence of Dopamine D1 (P21728 whole entry): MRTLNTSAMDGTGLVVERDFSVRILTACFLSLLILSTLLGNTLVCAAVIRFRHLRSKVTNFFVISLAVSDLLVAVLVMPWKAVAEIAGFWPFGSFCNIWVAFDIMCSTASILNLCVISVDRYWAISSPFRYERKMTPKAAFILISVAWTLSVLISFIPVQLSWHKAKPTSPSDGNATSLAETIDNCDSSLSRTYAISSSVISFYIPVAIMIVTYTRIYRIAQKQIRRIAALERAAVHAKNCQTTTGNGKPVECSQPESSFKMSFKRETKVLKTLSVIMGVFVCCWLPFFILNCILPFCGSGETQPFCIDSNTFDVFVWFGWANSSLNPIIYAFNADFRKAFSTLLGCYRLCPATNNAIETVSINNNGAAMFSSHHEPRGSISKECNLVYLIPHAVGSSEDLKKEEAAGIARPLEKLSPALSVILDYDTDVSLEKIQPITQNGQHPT
Procedure: as §1

5-HT1A = target: T2, 5-HT1A (Homo sapiens, UniProt P08908); test: In vitro profiling, binding assay
T2 sequence (P08908 1-422): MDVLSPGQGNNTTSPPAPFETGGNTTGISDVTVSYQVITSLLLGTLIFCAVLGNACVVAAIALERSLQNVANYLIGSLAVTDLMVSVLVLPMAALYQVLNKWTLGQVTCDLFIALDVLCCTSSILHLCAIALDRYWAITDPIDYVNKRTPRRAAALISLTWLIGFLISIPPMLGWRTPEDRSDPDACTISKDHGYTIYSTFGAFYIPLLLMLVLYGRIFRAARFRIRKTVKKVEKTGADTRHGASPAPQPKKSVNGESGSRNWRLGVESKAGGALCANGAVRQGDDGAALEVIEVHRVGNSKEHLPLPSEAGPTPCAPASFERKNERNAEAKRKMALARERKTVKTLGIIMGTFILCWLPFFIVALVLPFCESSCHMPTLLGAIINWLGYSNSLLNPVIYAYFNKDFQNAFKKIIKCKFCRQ
Procedure: as §1

Cannabinoid CB1 = Cannabinoid CB1 (Homo sapiens, UniProt P21554); test: In vitro profiling, binding assay
Sequence of Cannabinoid CB1 (P21554 whole entry): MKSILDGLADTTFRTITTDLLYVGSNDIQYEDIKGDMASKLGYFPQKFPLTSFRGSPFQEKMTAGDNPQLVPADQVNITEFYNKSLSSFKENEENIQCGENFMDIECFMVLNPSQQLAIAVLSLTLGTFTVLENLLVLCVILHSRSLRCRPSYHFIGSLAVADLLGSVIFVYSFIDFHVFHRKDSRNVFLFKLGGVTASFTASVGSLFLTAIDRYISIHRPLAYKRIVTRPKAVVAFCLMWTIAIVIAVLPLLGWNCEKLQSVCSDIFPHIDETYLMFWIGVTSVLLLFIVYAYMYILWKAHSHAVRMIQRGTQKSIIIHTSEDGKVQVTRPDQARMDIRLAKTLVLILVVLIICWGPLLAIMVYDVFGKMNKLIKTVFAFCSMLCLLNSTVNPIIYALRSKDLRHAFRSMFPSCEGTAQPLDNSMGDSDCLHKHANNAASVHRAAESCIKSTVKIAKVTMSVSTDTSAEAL
Procedure: as §1

5-HT1B = 5-HT1B (Homo sapiens, UniProt P28222); test: In vitro profiling, binding assay
Sequence of 5-HT1B (P28222 whole entry): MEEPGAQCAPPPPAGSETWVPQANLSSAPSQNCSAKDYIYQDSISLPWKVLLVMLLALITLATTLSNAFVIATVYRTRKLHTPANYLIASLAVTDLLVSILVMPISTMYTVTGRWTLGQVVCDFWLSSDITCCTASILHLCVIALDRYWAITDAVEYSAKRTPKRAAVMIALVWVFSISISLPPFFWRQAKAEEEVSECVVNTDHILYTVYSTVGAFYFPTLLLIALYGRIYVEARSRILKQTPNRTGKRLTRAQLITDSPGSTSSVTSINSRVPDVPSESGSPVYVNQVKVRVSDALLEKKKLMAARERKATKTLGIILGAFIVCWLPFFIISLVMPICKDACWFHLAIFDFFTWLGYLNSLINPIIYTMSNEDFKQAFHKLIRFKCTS
Procedure: as §1

[3] = tested on: isolated perfused guinea pig heart; test: Langendorff perfused heart assay; conditions: for % change in LV dP/dt max from pre-application / % change in LVPSP from pre-application: mean ± SD, n = 3
Procedure: After injection of heparin sodium (100 unit/body, AY Pharmaceuticals Co., Ltd.) into the jugular vein, the animals were exsanguinated. […] A stainless-steel cannula was inserted in the aorta, followed by attachment to the Langendorff apparatus (Physio-Tech Co., Ltd., Tokyo, Japan). The attached heart was perfused with KH solution at 37.0 ± 0.2 °C. Before use, the KH solution was aerated by a gas mixture (95%O2 + 5%CO2) for 30 min or longer. The perfusion pressure was maintained at 70 mmHg.
DMSO solutions at 1, 10, and 100 mM were diluted 1000-fold with the KH solution to make test solutions of 1, 10, and 100 μM, respectively. The test solutions were cumulatively applied at a flow rate of 20 mL/min for 10 min with each concentration.
An ECG signal was recorded using electrodes fixed on the ventricular apex (+), and a stainless-steel cannula was inserted in the aorta (−), and LVP was recorded from the balloon catheter placed in the left ventricle. The ECG signals were amplified with an amplifier (DAM50; World Precision Instruments, Inc.) and LVPs were monitored with a Pressure Monitor 4 (Living Systems Instrumentation). Both of the waveforms were recorded with computer software (1000 Hz; iox2 and ecgAUTO3; emka Technologies).
Before measurement, the in-balloon pressure was adjusted so that the diastolic blood pressure would be in the range of 0 to 10 mmHg. The cardiac parameters, such as HR, PR interval, QRS duration, QT interval, QTc interval (Fridericia’s formula: QTc = QT/RR^1/3), LVPSP, left-ventricular end diastolic pressure (LVEDP), and LV dP/dt max, were measured.
Data are expressed as mean (± SD). The measured % changes from the pre-application value were used for analyses. Williams test was carried out between the solvent-control and test compound. Student’s t-test was carried out between the solvent-control and positive-control. […] The data from the solvent control and drug groups were tested by F test for homogeneity of variance. F test was performed at the significance level of 5%. When the variances were homogeneous, Student’s t-test was subsequently performed. When the variances were nonhomogeneous, Welch t-test was selected.

Phosphodiesterase PDE4 = test: In vitro profiling, functional assay; assay type: biochemical, human; conditions: 30 µM
Procedure: as §1

[4] = 30 µM, Transporter, Dopamine (DAT), read-out: % Inhibition
[5] = 30 µM, Cholecystokinin CCK1 (CCKA), read-out: % Inhibition
[6] = 30 µM, Adrenergic β1, read-out: % Inhibition
[7] = 30 µM, Dopamine D1, read-out: % Inhibition
[8] = 30 µM, 5-HT1A, read-out: % Inhibition
[9] = 30 µM, Cannabinoid CB1, read-out: % Inhibition
[10] = 30 µM, 5-HT1B, read-out: % Inhibition

Row | Compound | inhibition at 30 µM (Histamine H1) [%] | inhibition at 30 µM [1, 4] [%] | inhibition at 30 µM [2, 5] [%] | inhibition at 30 µM (Adrenergic β1; [6]) [%] | inhibition at 30 µM (Dopamine D1; [7]) [%] | inhibition at 30 µM (5-HT1A; [8]) [%] | inhibition at 30 µM (Cannabinoid CB1; [9]) [%] | inhibition at 30 µM (5-HT1B; [10]) [%] | % change in LV dP/dt max from pre-application ([3]; 100 μM) | % change in LVPSP from pre-application ([3]; 100 μM) [%] | % Inhibition (Phosphodiesterase PDE4) [%] | also measured
1 | O=C(/C=C/c1ccc(O)c(O)c1)O[C@H]1C[C@@](O)(C(=O)O)C[C@H](O)[C@@H]1O [5-CQA, 5-O-caffeoylquinic acid] | -12 | -10 | 10 | -1 | 7 | 12 | -6 | -1 | −12.0 ± 6.2% and −12% | −8.5 ± 6.2 | −6 | 
2 | COc1cc(/C=C/C(=O)O)ccc1O [FA, ferulic acid] |  |  |  |  |  |  |  |  |  |  | 7 | inhibition at 30 µM [1]: 0%; inhibition at 30 µM [2]: 1%; inhibition at 30 µM (Adrenergic β1): -2%; inhibition at 30 µM (Dopamine D1): -1%; inhibition at 30 µM (5-HT1A): 2%; inhibition at 30 µM (Cannabinoid CB1): -15%; inhibition at 30 µM (5-HT1B): 4%; Effect on LVP ([3]; at 100 μM): did not affect; Change in ECG parameters compared to solvent control ([3]; until 100 µM): no significant change
3 | O=C(O)/C=C/c1ccc(O)c(O)c1 [CA, caffeic acid] |  |  |  |  |  |  |  |  | −8.8 ± 0.8% | −6.2 ± 0.9 | 4 | % Inhibition (Histamine H1; 30 µM): −11%; % Inhibition ([1]; 30 µM, Transporter, Dopamine (DAT)): 2%; % Inhibition ([2]; 30 µM, Cholecystokinin CCK1 (CCKA)): 12%; % Inhibition (Adrenergic β1; 30 µM, Adrenergic β1): 3%; % Inhibition (Dopamine D1; 30 µM, Dopamine D1): 5%; % Inhibition (5-HT1A; 30 µM, 5-HT1A): 9%; % Inhibition (Cannabinoid CB1; 30 µM, Cannabinoid CB1): −9%; % Inhibition (5-HT1B; 30 µM, 5-HT1B): 3%; % change in LV dP/dt max from pre-application ([3]; 10 μM): −6.5 ± 1.6%; % change in LVPSP from pre-application ([3]; 10 μM): −4.3 ± 0.8%
4 | COc1cc(/C=C/C(=O)O[C@H]2C[C@@](O)(C(=O)O)C[C@H](O)[C@@H]2O)ccc1O [5-FQA, 5-O-feruloylquinic acid] | -22 | 6 | 7 | -4 | 22 | 11 | -6 | -10 |  |  | 2 | 
